ChEMBL document CHEMBL4680174, “Synthesis, biological evaluation and in silico modeling of novel integrase strand transfer inhibitors (INSTIs)” (Eur J Med Chem, 2020)
Values after ≈ are worked out from the molar mass of the structure shown.

How the values were obtained:
[1] = Protein binding in rat plasma at 1 uM after 4 hrs by LC-MS/MS analysis; assay type: ADME, cell-free; conditions: read-out: PPB (converted)
[2] = Elimination rate constant Sprague-Dawley rat at 5 mg/kg, po up to 24 hrs by LC-MS/MS analysis; assay type: ADME, organism-based; conditions: in vivo
[3] = Protein binding in human plasma at 1 uM after 4 hrs by LC-MS/MS analysis; assay type: ADME, cell-free; conditions: read-out: PPB
[4] = Drug concentration in Sprague-Dawley rat at 5 mg/kg, po after 24 hrs by LC-MS/MS analysis; assay type: ADME, organism-based; conditions: in vivo, read-out: Drug uptake
[5] = Oral bioavailability in Sprague-Dawley rat at 5 mg/kg up to 24 hrs by LC-MS/MS analysis; assay type: ADME, organism-based; conditions: in vivo
[6] = Thermodynamic solubility of compound in water at 2 mg after 24 hrs; assay type: physicochemical; conditions: read-out: Therm_solubility
[7] = Drug concentration in Sprague-Dawley rat at 5 mg/kg, po after 8 hrs by LC-MS/MS analysis; assay type: ADME, organism-based; conditions: in vivo, read-out: Drug uptake
[8] = Cytotoxicity against human CEM-SS cells assessed as reduction in cell viability by XTT assay; assay type: cell-based
[9] = Elimination rate constant Sprague-Dawley rat at 1 mg/kg, iv up to 24 hrs by LC-MS/MS analysis; assay type: ADME, organism-based; conditions: in vivo
Cytochrome P450 3A4 = Cytochrome P450 3A4 (Homo sapiens, UniProt P08684); experiment: Inhibition of CYP3A4 in human liver microsomes using midazolam as substrate incubated for 30 mins by LC-MS/MS analysis; assay type: ADME
[10] = Stability in rat liver microsomes assessed as parent compound remaining at 1 uM up to 24 hrs by LC-MS/MS analysis; assay type: ADME, Microsome; conditions: read-out: Stabilty
[11] = system: Human immunodeficiency virus 1; experiment: Antiviral activity against HIV1 3B infected in human CEM-SS cells assessed as reduction in cytopathic effect after 4 days; assay type: functional, organism-based
Cytochrome P450 2C8 = molecular target: T1, Cytochrome P450 2C8 (Homo sapiens, UniProt P10632); experiment: Inhibition of CYP2C8 in human liver microsomes using amodiaquine as substrate incubated for 30 mins by LC-MS/MS analysis; assay type: ADME
T1 sequence (P10632 whole entry): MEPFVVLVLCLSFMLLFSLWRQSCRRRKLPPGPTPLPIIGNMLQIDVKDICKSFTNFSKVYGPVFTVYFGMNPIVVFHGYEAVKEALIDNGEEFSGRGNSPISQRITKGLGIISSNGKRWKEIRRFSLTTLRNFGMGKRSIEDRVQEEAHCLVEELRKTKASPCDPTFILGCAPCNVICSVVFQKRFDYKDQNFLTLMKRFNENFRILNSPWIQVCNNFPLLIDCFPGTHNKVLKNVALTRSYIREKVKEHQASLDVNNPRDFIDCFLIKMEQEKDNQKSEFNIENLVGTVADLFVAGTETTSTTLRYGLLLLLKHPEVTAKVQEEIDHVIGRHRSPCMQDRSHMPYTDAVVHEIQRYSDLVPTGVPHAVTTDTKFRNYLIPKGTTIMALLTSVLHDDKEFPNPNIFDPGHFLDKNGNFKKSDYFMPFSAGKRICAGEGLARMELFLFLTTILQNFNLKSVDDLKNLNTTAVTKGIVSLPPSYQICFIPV

[12] = Stability in human plasma assessed as parent compound remaining at 1 uM up to 24 hrs by LC-MS/MS analysis; assay type: ADME, cell-free; conditions: read-out: Stabilty
[13] = Thermodynamic solubility of compound in plON buffer at 2 mg after 24 hrs; assay type: physicochemical; conditions: read-out: Therm_solubility
Cytochrome P450 2C19 = Cytochrome P450 2C19 (Homo sapiens, UniProt P33261); experiment: Inhibition of CYP2C19 in human liver microsomes using S-mephenytoin as substrate incubated for 30 mins by LC-MS/MS analysis; assay type: ADME
[14] = Tmax in Sprague-Dawley rat at 5 mg/kg, po up to 24 hrs by LC-MS/MS analysis; assay type: ADME, organism-based; conditions: in vivo
Cytochrome P450 1A2 = molecular target: T2, Cytochrome P450 1A2 (Homo sapiens, UniProt P05177); experiment: Inhibition of CYP1A2 in human liver microsomes using phenacetin as substrate incubated for 30 mins by LC-MS/MS analysis; assay type: ADME
T2 sequence (P05177 whole entry): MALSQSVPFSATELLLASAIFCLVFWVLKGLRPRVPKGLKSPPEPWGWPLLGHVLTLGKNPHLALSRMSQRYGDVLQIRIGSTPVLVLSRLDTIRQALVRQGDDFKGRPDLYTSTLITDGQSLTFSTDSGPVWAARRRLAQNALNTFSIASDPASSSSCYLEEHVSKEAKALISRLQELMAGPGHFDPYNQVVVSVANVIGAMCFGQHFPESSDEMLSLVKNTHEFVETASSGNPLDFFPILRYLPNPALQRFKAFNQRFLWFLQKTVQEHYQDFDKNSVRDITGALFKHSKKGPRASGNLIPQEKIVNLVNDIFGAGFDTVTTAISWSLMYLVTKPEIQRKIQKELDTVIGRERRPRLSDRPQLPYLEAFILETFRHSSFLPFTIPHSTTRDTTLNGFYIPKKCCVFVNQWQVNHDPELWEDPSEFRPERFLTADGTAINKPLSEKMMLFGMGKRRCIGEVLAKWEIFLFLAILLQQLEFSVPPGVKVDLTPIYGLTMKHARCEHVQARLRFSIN

[15] = Drug concentration in Sprague-Dawley rat at 1 mg/kg, iv after 8 hrs by LC-MS/MS analysis; assay type: ADME, organism-based; conditions: in vivo, read-out: Drug uptake
[16] = Stability in human liver microsomes assessed as parent compound remaining at 1 uM up to 24 hrs by LC-MS/MS analysis; assay type: ADME, Microsome; conditions: read-out: Stabilty
Cytochrome P450 2C9 = Cytochrome P450 2C9 (Homo sapiens, UniProt P11712); experiment: Inhibition of CYP2C9 in human liver microsomes using tolbutamide as substrate incubated for 30 mins by LC-MS/MS analysis; assay type: ADME
[17] = Selectivity index, ratio of CC50 for human CEM-SS cells to EC50 for Antiviral activity against HIV1 3B infected in human CEM-SS cells; assay type: toxicity, cell-based
[18] = Stability in rat plasma assessed as parent compound remaining at 1 uM up to 24 hrs by LC-MS/MS analysis; assay type: ADME, cell-free; conditions: read-out: Stabilty
[19] = Tmax in Sprague-Dawley rat at 1 mg/kg, iv up to 24 hrs by LC-MS/MS analysis; assay type: ADME, organism-based; conditions: in vivo
Cytochrome P450 2D6 = Cytochrome P450 2D6 (Homo sapiens, UniProt P10635); experiment: Inhibition of CYP2D6 in human liver microsomes using dextromethorphan as substrate incubated for 30 mins by LC-MS/MS analysis; assay type: ADME
[20] = Drug concentration in Sprague-Dawley rat at 1 mg/kg, iv after 24 hrs by LC-MS/MS analysis; assay type: ADME, organism-based; conditions: in vivo, read-out: Drug uptake
[21] = Elimination rate constant Sprague-Dawley rat at 2 mg/kg, iv up to 24 hrs by LC-MS/MS analysis; assay type: ADME, organism-based; conditions: in vivo
[22] = AUClast in Sprague-Dawley rat at 10 mg/kg, po up to 24 hrs by LC-MS/MS analysis; assay type: ADME, organism-based; parameters: route oral, dose 10 mg/kg, time <=24; conditions: in vivo
[23] = Drug concentration in Sprague-Dawley rat at 2 mg/kg, iv after 8 hrs by LC-MS/MS analysis; assay type: ADME, organism-based; conditions: in vivo, read-out: Drug uptake
[24] = Drug concentration in Sprague-Dawley rat at 10 mg/kg, po after 8 hrs by LC-MS/MS analysis; assay type: ADME, organism-based; conditions: in vivo, read-out: Drug uptake
[25] = Drug concentration in Sprague-Dawley rat at 10 mg/kg, po after 24 hrs by LC-MS/MS analysis; assay type: ADME, organism-based; conditions: in vivo, read-out: Drug uptake
[26] = Cmax in Sprague-Dawley rat at 2 mg/kg, iv up to 24 hrs by LC-MS/MS analysis; assay type: ADME, organism-based; parameters: route intravenous, dose 2 mg/kg, time <=24; conditions: in vivo
[27] = Half life in Sprague-Dawley rat at 10 mg/kg, po up to 24 hrs by LC-MS/MS analysis; assay type: ADME, organism-based; conditions: in vivo
[28] = MRTlast in Sprague-Dawley rat at 2 mg/kg, iv up to 24 hrs by LC-MS/MS analysis; assay type: ADME, organism-based; conditions: in vivo
[29] = AUCinfinity in Sprague-Dawley rat at 10 mg/kg, po up to 24 hrs by LC-MS/MS analysis; assay type: ADME, organism-based; parameters: route oral, dose 10 mg/kg, time <=24; conditions: in vivo
[30] = MRTlast in Sprague-Dawley rat at 10 mg/kg, po up to 24 hrs by LC-MS/MS analysis; assay type: ADME, organism-based; conditions: in vivo
[31] = Tmax in Sprague-Dawley rat at 2 mg/kg, iv up to 24 hrs by LC-MS/MS analysis; assay type: ADME, organism-based; conditions: in vivo
[32] = Cmax in Sprague-Dawley rat at 10 mg/kg, po up to 24 hrs by LC-MS/MS analysis; assay type: ADME, organism-based; parameters: route oral, dose 10 mg/kg, time <=24; conditions: in vivo
[33] = Tmax in Sprague-Dawley rat at 10 mg/kg, po up to 24 hrs by LC-MS/MS analysis; assay type: ADME, organism-based; conditions: in vivo
[34] = Elimination rate constant Sprague-Dawley rat at 10 mg/kg, po up to 24 hrs by LC-MS/MS analysis; assay type: ADME, organism-based; conditions: in vivo
[35] = AUCinfinity in Sprague-Dawley rat at 2 mg/kg, iv up to 24 hrs by LC-MS/MS analysis; assay type: ADME, organism-based; parameters: route intravenous, dose 2 mg/kg, time <=24; conditions: in vivo
[36] = Drug concentration in Sprague-Dawley rat at 2 mg/kg, iv after 24 hrs by LC-MS/MS analysis; assay type: ADME, organism-based; conditions: in vivo, read-out: Drug uptake
[37] = Oral bioavailability in Sprague-Dawley rat at 10 mg/kg up to 24 hrs by LC-MS/MS analysis; assay type: ADME, organism-based; conditions: in vivo
[38] = AUClast in Sprague-Dawley rat at 2 mg/kg, iv up to 24 hrs by LC-MS/MS analysis; assay type: ADME, organism-based; parameters: route intravenous, dose 2 mg/kg, time <=24; conditions: in vivo

Chain of Cytochrome P450 2D6 (P10635 whole entry): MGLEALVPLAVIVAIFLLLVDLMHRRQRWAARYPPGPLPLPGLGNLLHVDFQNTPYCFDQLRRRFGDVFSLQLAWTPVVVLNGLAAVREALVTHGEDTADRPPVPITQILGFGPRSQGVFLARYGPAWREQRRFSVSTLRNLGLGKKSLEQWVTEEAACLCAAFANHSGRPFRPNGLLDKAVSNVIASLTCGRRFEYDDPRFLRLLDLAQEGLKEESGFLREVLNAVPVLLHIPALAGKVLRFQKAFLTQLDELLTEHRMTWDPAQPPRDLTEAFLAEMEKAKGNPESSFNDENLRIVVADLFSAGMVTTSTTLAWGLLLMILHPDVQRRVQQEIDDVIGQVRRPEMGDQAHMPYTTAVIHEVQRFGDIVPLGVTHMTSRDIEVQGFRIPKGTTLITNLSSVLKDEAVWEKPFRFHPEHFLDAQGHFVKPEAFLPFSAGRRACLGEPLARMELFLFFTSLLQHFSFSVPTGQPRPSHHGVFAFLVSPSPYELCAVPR
Chain of Cytochrome P450 3A4 (P08684 whole entry): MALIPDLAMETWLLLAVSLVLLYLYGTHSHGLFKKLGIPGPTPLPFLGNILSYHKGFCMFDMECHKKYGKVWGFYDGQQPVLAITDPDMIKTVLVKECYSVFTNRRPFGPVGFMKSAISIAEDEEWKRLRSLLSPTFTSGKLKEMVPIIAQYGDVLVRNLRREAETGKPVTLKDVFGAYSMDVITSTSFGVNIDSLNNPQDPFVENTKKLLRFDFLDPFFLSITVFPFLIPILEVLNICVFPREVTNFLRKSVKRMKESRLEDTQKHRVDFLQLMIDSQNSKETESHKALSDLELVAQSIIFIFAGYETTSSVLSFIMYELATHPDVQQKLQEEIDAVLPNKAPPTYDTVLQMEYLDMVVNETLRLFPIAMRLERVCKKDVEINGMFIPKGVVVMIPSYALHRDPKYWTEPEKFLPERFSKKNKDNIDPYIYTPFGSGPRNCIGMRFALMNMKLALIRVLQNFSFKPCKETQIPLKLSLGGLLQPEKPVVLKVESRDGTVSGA
Chain of Cytochrome P450 2C9 (P11712 whole entry): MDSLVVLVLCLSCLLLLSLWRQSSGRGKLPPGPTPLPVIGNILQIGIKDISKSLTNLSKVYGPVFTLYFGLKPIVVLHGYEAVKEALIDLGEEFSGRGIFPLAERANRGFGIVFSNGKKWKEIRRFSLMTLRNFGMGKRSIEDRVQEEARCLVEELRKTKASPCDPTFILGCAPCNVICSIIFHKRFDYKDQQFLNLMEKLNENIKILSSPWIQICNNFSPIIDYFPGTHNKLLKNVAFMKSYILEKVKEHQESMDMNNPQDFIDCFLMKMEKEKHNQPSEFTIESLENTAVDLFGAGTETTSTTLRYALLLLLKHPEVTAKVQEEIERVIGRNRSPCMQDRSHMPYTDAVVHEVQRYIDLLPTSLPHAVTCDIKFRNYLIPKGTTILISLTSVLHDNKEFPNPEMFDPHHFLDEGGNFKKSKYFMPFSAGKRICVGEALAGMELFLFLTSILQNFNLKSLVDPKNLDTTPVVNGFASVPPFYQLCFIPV
Chain of Cytochrome P450 2C19 (P33261 whole entry): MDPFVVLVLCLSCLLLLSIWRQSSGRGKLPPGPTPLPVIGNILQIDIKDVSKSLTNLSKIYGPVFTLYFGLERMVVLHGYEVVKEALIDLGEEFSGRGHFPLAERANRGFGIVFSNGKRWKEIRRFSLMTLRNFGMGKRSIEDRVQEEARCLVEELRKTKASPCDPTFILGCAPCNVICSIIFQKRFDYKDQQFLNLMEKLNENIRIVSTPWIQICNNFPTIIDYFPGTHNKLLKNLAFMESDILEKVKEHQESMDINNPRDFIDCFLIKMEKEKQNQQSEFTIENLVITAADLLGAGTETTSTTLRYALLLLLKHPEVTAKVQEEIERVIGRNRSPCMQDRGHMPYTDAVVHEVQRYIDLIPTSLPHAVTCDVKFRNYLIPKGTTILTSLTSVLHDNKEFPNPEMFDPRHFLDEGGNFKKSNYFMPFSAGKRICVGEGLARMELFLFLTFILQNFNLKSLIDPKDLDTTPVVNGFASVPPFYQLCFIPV

## C[C@H]1CO[C@@H]2Cn3cc(C(=O)NCc4ccc(F)nc4F)c(=O)c(O)c3C(=O)N12
[1]
  fraction unbound at 4 h, 1 µM: 0.011
[2]
  k el at 24 h: 1.11e-05 s⁻¹
[3]
  fraction unbound at 4 h, 1 µM: 0.001
[4]
  concentration at 24 h: 4440 ng/mL
[5]
  bioavailability: 17.5%
[6]
  solubility thermodynamic at 24 h: 269 µg/mL (≈ 662 µM)
[7]
  concentration at 8 h: 7910 ng/mL
[8]
  CC50: > 10 nM
[9]
  k el at 24 h: 8.33e-06 s⁻¹
Cytochrome P450 3A4
  IC50: > 10 µM
[10]
  remaining at 24 h, 1 µM: 83.8%
[11]; cem-ss
  EC50: 0.24 nM
Cytochrome P450 2C8
  IC50: > 10 µM
[12]
  remaining at 24 h, 1 µM: 95%
[13]
  solubility thermodynamic at 24 h: 232 µg/mL (≈ 571 µM)
Cytochrome P450 2C19
  IC50: > 10 µM
[14]
  Tmax: 3 h
Cytochrome P450 1A2
  IC50: > 10 µM
[15]
  concentration at 8 h: 8620 ng/mL
[16]
  remaining at 24 h, 1 µM: 84%
Cytochrome P450 2C9
  IC50: > 10 µM
[17]
  Ratio CC50/EC50: > 41.7
[18]
  remaining at 24 h, 1 µM: 94.5%
[19]
  Tmax: 4.8 min
Cytochrome P450 2D6
  IC50: > 10 µM
[20]
  concentration at 24 h: 5430 ng/mL

## C[C@H]1CO[C@@H]2Cn3cc(C(=O)NCc4ccc5nonc5c4)c(=O)c(O)c3C(=O)N12
[21]
  Kel: 0.03 h⁻¹
[22]
  AUC(0-t) at 24 h: 66900 ng·h/mL
[23]
  concentration at 8 h: 24500 ng/mL
[1]
  fraction unbound at 4 h, 1 µM: 0.9
[24]
  concentration at 8 h: 3470 ng/mL
[3]
  fraction unbound at 4 h, 1 µM: 0.001
[6]
  solubility thermodynamic at 24 h: 2.85 µg/mL (≈ 6.93 µM)
[25]
  concentration at 24 h: 4440 ng/mL
[8]
  CC50: > 10 nM
[26]
  Cmax: 37200 ng/mL
[10]
  remaining at 24 h, 1 µM: 110%
[27]
  half-life: 2100 min
[11]; Human immunodeficiency virus 1, 3B, CEM-SS, 96 h
  EC50: 0.43 nM
[28]
  MRTlast: 9.81 h
[29]
  AUC: 200.296 µg·h/mL
[13]
  solubility thermodynamic at 24 h: 3.2 µg/mL (≈ 7.78 µM)
[30]
  MRT last at 24 h: 11.3 h
[31]
  Tmax: 1 h
[32]
  Cmax: 3680 ng/mL
[33]
  Tmax: 6.67 h
[34]
  k el at 24 h: 5.56e-06 s⁻¹
[16]
  remaining at 24 h, 1 µM: 105%
[35]
  AUC: 1139.52 µg·h/mL
[36]
  concentration at 24 h: 16600 ng/mL
[37]
  F: 17.5%
[38]
  AUC(0-t) at 24 h: 578 µg·h/mL
